Measured values taken from patent publication US6410558B1, “Fungicides for the control of take-all disease of plants” (Monsanto Technology LLC, priority 1991, dated 2002).
Where two headings read alike, the source gives them in different places.

What was measured:
Ggt = experiment: In vivo Assay: control of Ggt on wheat grown in pots of Ggt-infested soil, root disease rating; design: species or system Gaeumannomyces graminis var. tritici; conditions: for pest or weed control at 0.5 mg/pot: Gaeumannomyces graminis, 672 h, read-out: In vivo, percent disease control
Experimental: Compounds are tested for control of Ggt on ‘Bergen’ or ‘Anza’ varieties of wheat grown in 3-inch square pots containing soil infested with Ggt. The infestation is accomplished by mixing the soil with an inoculum prepared by growing Ggt on ¼ strength potato dextrose agar (4.875 g potato dextrose agar, 5.0 g Bacto agar, 500 mL distilled, deionized water) in plates and using plugs from the plates to infest sterile oats (400 cc whole oats, 350 mL deionized water, autoclaved). After a one-month incubation period at room temperature, the oats are dried and mixed with the soil at 4% v/v. Four wheat seeds are placed on top of the soil in each pot. The test compounds are prepared as an 1:9 acetone/water v/v solution containing 0.18% Tween® 20 to provide a treatment rate of 0.5 mg active ingredient per pot, treated with 3 mL test solution per pot. Five pots are used for each treatment level and the controls, which are untreated, inoculated and non-inoculated pots. After one hour drying time, the seeds are covered with more of the appropriate soil and a layer of vermiculite. The pots are placed in a growth chamber and watered each day. After four weeks, each pot is evaluated for evidence of disease by examination of the seminal roots of each plant under a dissecting microscope. A 0 to 5 rating scale having the following meanings is used:
0=no runner hyphae or lesions present
1=runner hyphae and a few small lesions present on <10% of root system
2=runner hyphae and small lesions present on 10-25% of root system
3=runner hyphae and lesions present on 25-50% of root system
4=runner hyphae and many, large, coalescing lesions on >50% of root system
5=root system and culm completely inundated with lesions and runner hyphae
From each set of five replicates a high and low score is eliminated and a replicate mean is calculated by the average of the remaining three scores. This mean score is then compared to the untreated control score and a percent disease control is calculated.

[1] = test system: Gaeumannomyces graminis var. tritici (Ggt); experiment: In vitro Assay: mycelial growth of Ggt on minimal media agar plates containing test compound; type: cell-based; conditions: dark, 19-20° C., 4 to 5 days, diameter of mycelial growth; for inhibition at 0.1 ppm / inhibition at 1 ppm / inhibition at 10 ppm: Gaeumannomyces graminis; for inhibition at 0.1 ppm: read-out: In vitro (ppm) 0.1, Percent Inhibition; for inhibition at 1 ppm: read-out: In vitro (ppm) 1, Percent Inhibition; for inhibition at 10 ppm: read-out: In vitro (ppm) 10, Percent Inhibition
In short: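 Compounds added from acetone stock into minimal (Czapek Dox) agar; plates inoculated with three 4-mm Ggt plugs, incubated in dark at 19-20° C for 4 to 5 days. Colony diameter measured; Percent Inhibition = [1-((treated mm −4)/(control mm −4))]×100.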

[2] = 0.5 mg active ingredient per pot, 'Bergen' or 'Anza' wheat in Ggt-infested soil, after four weeks, vs untreated control

Compound	pest or weed control at 0.5 mg/pot (Ggt; [2])	inhibition at 0.1 ppm ([1]; 0.1 ppm in minimal media agar)	inhibition at 1 ppm ([1]; 1 ppm in minimal media agar)	inhibition at 10 ppm ([1]; 10 ppm in minimal media agar)	In vivo, percent disease control (Ggt; [2])	In vitro (ppm) 0.1, Percent Inhibition ([1]; 0.1 ppm in minimal media agar)	In vitro (ppm) 1, Percent Inhibition ([1]; 1 ppm in minimal media agar)	In vitro (ppm) 10, Percent Inhibition ([1]; 10 ppm in minimal media agar)	pest or weed control at 0.5 mg/pot (Ggt; soil)
CCN(CC)C(=O)c1c(C(F)F)ccc(F)c1[Si](C)(C)C [Example 52, N,N-Diethyl-6-(difluoromethyl)-3-fluoro-2-(trimethylsilyl)benzamide]	96%	53%	81%	98%	–	–	–	–	–
CCN(CC)C(=S)c1c(C)ccc(F)c1[Si](C)(C)C [Example 53, N,N-Diethyl-3-fluoro-6-methyl-2-(trimethylsilyl)thiobenzamide]	65%	9%	19%	95%	–	–	–	–	–
CCN(CC)C(=O)c1c(CO)ccc(F)c1[Si](C)(C)C [Example 54, N,N-Diethyl-3-fluoro-6-(hydroxymethyl)-2-(trimethylsilyl)benzamide]	52%	< 0%	2%	43%	–	–	–	–	–
CCN(CC)C(=O)c1c(CF)ccc(F)c1[Si](C)(C)C [Example 55, N,N-Diethyl-3-fluoro-6-(fluoromethyl)-2-(trimethylsilyl)benzamide]	100%	49%	81%	100%	–	–	–	–	–
CCN(CC)C(=O)c1c(F)ccc(F)c1[Si](C)(C)C [Example 56, N,N-Diethyl-3,6-difluoro-2-(trimethylsilyl)benzamide]	91%	10%	31%	74%	–	–	–	–	–
CCN(CC)C(=O)c1c(C(F)(F)F)cccc1[Si](C)(C)C [Example 61, N,N-Diethyl-2-(trimethylsilyl)-6-(trifluoromethyl)benzamide]	1%	9%	29%	49%	–	–	–	–	–
CCN(CC)C(=O)c1c(C(F)(F)F)ccc(C(F)(F)F)c1[Si](C)(C)C [Example 62, N,N-Diethyl-2-(trimethylsilyl)-3,6-bis(trifluoromethyl)benzamide]	9%	8%	3%	69%	–	–	–	–	–
CCN(CC)C(=O)c1c([Si](C)(C)C)ccc(C)c1Cl [Example 65, N,N-Diethyl-2-chloro-3-methyl-6-(trimethylsilyl)benzamide]	95%	39%	56%	100%	–	–	–	–	–
CCN(CC)C(=O)c1c(Cl)cccc1[Si](CC)(CC)CC [Example 66, N,N-Diethyl-2-chloro-6-(triethylsilyl)benzamide]	3%	< 0%	< 0%	58%	–	–	–	–	–
CCN(CC)C(=O)c1c(Cl)cccc1[Si](C)(C)c1ccccc1 [Example 67, N,N-Diethyl-2-chloro-6-(dimethylphenylsilyl)benzamide]	< 0%	< 0%	19%	100%	–	–	–	–	–
CCN(CC)C(=O)c1c(Cl)cccc1[Si](C(C)C)(C(C)C)C(C)C [Example 68, N,N-Diethyl-2-chloro-6-[tris(1-methylethyl)silyl]benzamide]	< 0%	8%	< 0%	41%	–	–	–	–	–
CCN(CC)C(=O)c1c(Cl)cccc1[Si](C)(C)CCl [Example 69, N,N-Diethyl-2-chloro-6-[(chloromethyl)dimethylsilyl]benzamide]	67%	51%	81%	100%	–	–	–	–	–
CCN(CC)C(=O)c1c(Cl)ccc(C)c1[Si](C)(C)C [Example 71, N,N-Diethyl-6-chloro-3-methyl-2-(trimethylsilyl)benzamide]	50%	14%	8%	< 0%	–	–	–	–	–
CCN(CC)C(=S)c1cccc(F)c1[Si](C)(C)C [Example 74, N,N-Diethyl-3-fluoro-2-(trimethylsilyl)thiobenzamide]	47%	7%	31%	93%	–	–	–	–	–
CCSC(=O)c1c(Cl)cccc1[Si](C)(C)C [Example 77, 2-Chloro-6-(trimethylsilyl)benzenecarbothioic acid, S-ethyl ester]	< 0%	13%	47%	100%	–	–	–	–	–
CCNC(=O)c1c(C(F)(F)F)cccc1[Si](C)(C)C [Example 82, N-Ethyl-2-(trifluoromethyl)-6-(trimethylsilyl)benzamide]	58%	30%	< 0%	57%	–	–	–	–	–
CCNC(=O)c1c(Cl)cccc1[Si](C)(C)CCl [Example 83, N-Ethyl-2-chloro-6-[(chloromethyl)dimethylsilyl]benzamide]	99%	100%	100%	100%	–	–	–	–	–
C=C[Si](C)(C)c1cccc(Cl)c1C(=O)NCC [Example 87, N-Ethyl-2-chloro-6-(ethenyldimethylsilyl)benzamide]	96%	93%	100%	100%	–	–	–	–	–
CCNC(=O)c1c(Cl)cccc1OC(C)(C)C [Example 89, N-Ethyl-2-chloro-6-(1,1-dimethylethoxy)benzamide]	96%	19%	85%	100%	–	–	–	–	–
CCCN(C(=O)c1c(Cl)cccc1[Si](C)(C)C)C(C)C [Example 95, 2-Chloro-N-(1-methylethyl)-N-propyl-6-(trimethylsilyl)benzamide]	63%	< 0%	62%	100%	–	–	–	–	–
CCN(CC)C(=O)c1c(CF)cccc1[Si](C)(C)C [Example 98, N,N-Diethyl-2-(fluoromethyl)-6-(trimethylsilyl)benzamide]	97%	22%	81%	100%	–	–	–	–	–
CN(C)NC(=O)c1c(Cl)cccc1[Si](C)(C)C [Example 99, 2-Chloro-6-(trimethylsilyl)-2,2-dimethylhydrazide-benzoic acid]	–	–	–	–	59%	5%	72%	95%	–
CN(Cc1ccc(C(F)(F)F)cc1)C(=O)c1c(Cl)cccc1[Si](C)(C)C [Example 103, 2-Chloro-N-methyl-N-[[4-(trifluoromethyl)phenyl]-methyl]-6-(trimethylsilyl)-benzamide]	26%	< 0%	55%	92%	–	–	–	–	–
C=CCNC(=O)c1c(Cl)cccc1[Si](C)(C)C [Example 106, 2-Chloro-N-2-propenyl-6-(trimethylsilyl)benzamide]	100%	95%	95%	97%	–	–	–	–	–
CC(C)(C)OC(=O)Nc1c(Cl)cccc1[Si](C)(C)C [Example 111, [2-Chloro-6-(trimethylsilyl)phenyl]carbamic acid, 1,1-dimethylethyl ester]	–	14%	66%	100%	–	–	–	–	48%
CC1CN(C(=O)c2c(Cl)cccc2[Si](C)(C)C)CC(C)O1 (centres unmarked) [Example 130, N-[2-Chloro-6-(trimethylsilyl)benzoyl]-2,6-dimethylmorpholine]	1%	16%	13%	39%	–	–	–	–	–
